Here are results for 21 molecules from patent US20240383846A1, “MERCAPTOACETOPHENONE AMINOHYDRAZONES, THEIR SALTS AND USES THEREOF” (priority 2021, published 2024).

Experiment [1] deals with MRSA USA300. Kind of experiment: MIC by broth microdilution (CLSI) against MRSA USA300. The experiment is classed as cell-based, Staphylococcus aureus. The conditions noted are these: for MIC: Staphylococcus aureus, read-out: MRSA USA300 MIC. The text has this: (§1) Table 1 summarizes the antibacterial activity of certain compounds, according to the present invention, as calculated by minimum inhibitory concentration (MIC) values against one multidrug resistant gram-positive strain (MRSA USA300), and one multidrug resistant gram-negative (Acinetobacter baumannii AB5075). The later bacterial strain is listed at the top of the WHO's critical priority list for antibiotic development. Preferred compounds, according to the present invention are example compounds of formulas 72, 74, and 75, and, in particular, example compound of formula 75.
(§2) The minimum inhibitory concentration (MIC) of tested compounds and control antibiotics was determined using the broth microdilution method according to the guidelines outlined by the Clinical and Laboratory Standards Institute (CLSI, Methods for Dilution Antimicrobial Susceptibility Tests for Bacteria That Grow Aerobically; Approved Standard. January 2012; Vol. Ninth Edition M07-A9. 32 No. 2.). Bacterial strains were grown aerobically overnight on tryptone soy agar plates at 37° C. Afterwards, a bacterial solution equivalent to 0.5 McFarland standard was prepared and diluted in cation-adjusted Mueller-Hinton broth (CAMHB) to achieve a bacterial concentration of about 5×10^5 CFU/mL and seeded in 96-well plates. Compounds and control drugs were added in the first row of the 96-well plates and serially diluted along the plates. Plates were then, incubated aerobically at 37° C. for 18-20 hours.
In general terms: Dilution methods test growth across graded concentrations, often in twofold steps.

The subject of the next experiment is A. baumannii AB5075. Kind of experiment: MIC by broth microdilution (CLSI) against A. baumannii AB5075. The experiment is classed as cell-based, Acinetobacter baumannii. As to conditions: for MIC: Acinetobacter baumannii.
Description: as §1, §2

Experiment [2] concerns MRSA USA300. Description: Multi-step resistance experiment, 14 consecutive passages. The experiment is classed as cell-based, Staphylococcus aureus. How it is done:
A multi-step resistance experiment was conducted, with example compound of formula 75. Initially, the MICs of heptyl compound and rifampicin, as the control antibiotic, were determined against MRSA USA300 using the broth microdilution method. Then, the strain was subcultured for fourteen consecutive passages over two weeks, with increasing concentrations of the tested agents, to detect the shift in the MIC, if any.
Multi-step resistance testing was conducted as reported earlier (PLOS One, 12 (2017) e0182821). A broth microdilution assay was used to determine the MIC for the MRSA strain USA300 after being exposed for 14 consecutive passages to either the example compound of formula 75, or rifampicin, as a control antibiotic. Briefly, different concentrations of TBT4 and rifampicin were prepared in 10 mL Mueller-Hinton (MH) broth (0.125 to 32 μg/ml and 0.003 to 1024 μg/mL, respectively) and they were inoculated with 10 μL of an overnight culture of S. aureus strain USA300 and then incubated at 37° C., with shaking at 180 rpm, for 24 h. […] Resistance was classified as a greater than four-fold increase in the initial MIC (Antimicrob. Agents Chemother., 55 (2011) 1177-1181).

A further experiment relates to MRSA strain USA300. Kind of experiment: Murine skin infection model, subcutaneous MRSA infection, topical treatment. As to conditions: mice, twice daily for four days; for bacterial counts from skin lesions compared with PJ group / appearance of skin lesions (visual comparison): 2% topical; for bacterial counts from skin lesions compared with PJ group: *p≤0.05; for appearance of skin lesions (visual comparison): vs petroleum jelly vehicle. It counts as in vivo. How it is done:
The effectiveness of certain compounds, according to the present invention, was assessed using a murine skin infection model, conducted as previously described (Tseng, C. W. et. al. Subcutaneous infection of methicillin resistant Staphylococcus aureus (MRSA), J. Vis. Exp., (2011) 2528). The effect of example compound of formula 75 was assessed against skin infection caused by methicillin-resistant Staphylococcus aureus (MRSA), the main causative agent of diabetic foot ulcer. Within 72 hours post-subcutaneous infection with MRSA strain USA300, the backs of the mice started showing evident lesions. At this point, treatment regimen started for the three groups of mice, for four days, twice daily, with petroleum jelly (PJ) or petroleum jelly with 2% example compound of formula 75 or 2% fusidic acid ointment (FA). […] The mice with plain vehicle (PJ) applied throughout the experiment had ulcerated lesions and visible skin damage with demarcated red prominent edges, as shown in FIG. 2A.

Where [3] appears, read: broth microdilution, CAMHB, 37° C., 18-20 hours.
Where [4] appears, read: AB5075, broth microdilution, CAMHB, 37° C., 18-20 hours, read-out: A. baumannii AB5075 MIC.
Setting [5] is: end of the experiment (fourteen passages).
Where [6] appears, read: comparison of MIC values of Table 1.

Converted amounts (≈) assume the structure as drawn. Like-named read-outs stand apart in the source and are kept apart here.

Regarding `CCC(CC)CSc1ccc(/C(C)=N/NC(=N)N)cc1` [Example compound of formula 78], the “MRSA USA300 MIC” value in the experiment on MRSA USA300 [1] (setting [3]) is recorded as “No inhibition”. For the same molecule, the “A. baumannii AB5075 MIC” value with A. baumannii AB5075 (setting [3]) was “No inhibition”.

As to Gentamycin [reference compound], the “A. baumannii AB5075 MIC” value with A. baumannii AB5075 (setting [3]) worked out at 1 µg/mL.

Turning to `C/C(=N\NC(=N)N)c1ccc(SCC(C)C)cc1` [Example compound of formula 76], the figures for the MIC with MRSA USA300 [1] (setting [3]) and with A. baumannii AB5075 (setting [4]) were 8 µg/mL and 16 µg/mL, respectively.

Consider `C/C(=N\NC(=N)N)c1ccc(SC2CCCC2)cc1` [Example compound of formula 79], for which the minimum inhibitory concentration (MIC) (as a rule, the least concentration at which growth counts as inhibited) worked out at 8 µg/mL with MRSA USA300 [1] (setting [3]) and 16 µg/mL with A. baumannii AB5075 (setting [4]).

On to `CCCCCCCSc1ccc(/C(C)=N/NC(=N)N)cc1` [Example compound of formula 75, 2-(1-(4-(Heptylthio)phenyl)ethylidene)hydrazine-1-carboximidamide], for which the MIC in the experiment on MRSA USA300 [1] (setting [3]) is 0.5 µg/mL; in the experiment with A. baumannii AB5075 (setting [4]), 1 µg/mL. Moreover, the “increase in MIC against MRSA USA300” value in the experiment with MRSA USA300 [2] (eighth passage) is on record as 2 fold; with MRSA USA300 [2] (setting [5]), “remained stable till the end of the experiment”; with MRSA USA300 [2] (on the fifth passage) it was “one-fold”. Moreover, the “decrease in bacterial loads recovered from skin lesions” value in the experiment on MRSA strain USA300 (2% in petroleum jelly, topical) is approximately 1 log cycle. Moreover, the “reduction in bacterial loads recovered from skin lesions” value in the experiment with MRSA strain USA300 (2% in petroleum jelly, topical) is given as 90%. Moreover, the “bacterial counts from skin lesions compared with PJ group” value with MRSA strain USA300 is given as “significantly lower than the counts obtained from the PJ group”. Moreover, in the experiment on MRSA strain USA300, the “appearance of skin lesions (visual comparison)” value was “showed signs of lesion healing and better recovery”.

Consider `CCCCCCSc1ccc(/C(C)=N/NC(=N)N)cc1` [Example compound of formula 74, 2-(1-(4-(Hexylthio)phenyl)ethylidene)hydrazine-1-carboximidamide], for which the MIC with MRSA USA300 [1] (setting [3]) was determined as 0.5 µg/mL; in the experiment with A. baumannii AB5075 (setting [4]), 4 µg/mL. Moreover, the “potency against S. aureus USA300 relative to example compound of formula 75” value with MRSA USA300 [1] (setting [6]) is “maintained the same potency”. In addition, the “potency against tested gram-negative pathogen (A. baumannii AB5075) relative to example compound of formula 75” value with A. baumannii AB5075 (setting [6]) was “four times less potent”.

Regarding `C/C(=N\NC(=N)N)c1ccc(SCC2CCC2)cc1` [Example compound of formula 81], the MIC in the experiment with MRSA USA300 [1] (setting [3]) is 8 µg/mL; with A. baumannii AB5075 (setting [4]) it was 16 µg/mL.

`CCCSc1ccc(/C(C)=N/NC(=N)N)cc1` [Example compound of formula 68]: in the experiment with MRSA USA300 [1] (setting [3]), the “MRSA USA300 MIC” value is “No inhibition”. Further, the “A. baumannii AB5075 MIC” value in the experiment on A. baumannii AB5075 (setting [3]) was “No inhibition”.

Consider `CC(=O)O[C@H]1C[C@@]2(C)[C@@H](C[C@@H](O)[C@H]3[C@@]4(C)CC[C@@H](O)[C@@H](C)[C@@H]4CC[C@@]32C)/C1=C(\CCC=C(C)C)C(=O)O` [fusidic acid, reference compound], for which, in the experiment on MRSA strain USA300, the “bacterial counts from skin lesions compared with PJ group” value is “significantly lower than the counts obtained from the PJ group”; the “appearance of skin lesions (visual comparison)” value was “showed signs of lesion healing and better recovery”.

Turning to `CCCCCSc1ccc(/C(C)=N/NC(=N)N)cc1` [Example compound of formula 71], the results for the MIC with MRSA USA300 [1] (setting [3]) and with A. baumannii AB5075 (setting [4]) were 8 µg/mL and 16 µg/mL, respectively.

As for `C/C(=N\NC(=N)N)c1ccc(SCCc2ccccc2)cc1` [Example compound of formula 84], the values for the MIC in the experiment with MRSA USA300 [1] (setting [3]) and in the experiment with A. baumannii AB5075 (setting [4]) were 2 µg/mL and 8 µg/mL, respectively.

Turning to `C/C(=N\NC(=N)N)c1ccc(SCCC(C)C)cc1` [Example compound of formula 77], the MIC is 4 µg/mL with MRSA USA300 [1] (setting [3]) and 8 µg/mL in the experiment on A. baumannii AB5075 (setting [4]).

With `CCCCCCCCSc1ccc(/C(C)=N/NC(=N)N)cc1` [Example compound of formula 72], the MIC was 1 µg/mL with MRSA USA300 [1] (setting [3]) and 8 µg/mL in the experiment on A. baumannii AB5075 (setting [4]).

With `CN[C@H](CC(C)C)C(=O)N[C@H]1C(=O)N[C@@H](CC(N)=O)C(=O)N[C@H]2C(=O)N[C@H]3C(=O)N[C@H](C(=O)N[C@H](C(=O)O)c4cc(O)cc(O)c4-c4cc3ccc4O)[C@H](O)c3ccc(c(Cl)c3)Oc3cc2cc(c3O[C@@H]2O[C@H](CO)[C@@H](O)[C@H](O)[C@H]2O[C@H]2C[C@](C)(N)[C@H](O)[C@H](C)O2)Oc2ccc(cc2Cl)[C@H]1O` [Vancomycin, reference compound], the MIC in the experiment with MRSA USA300 [1] was 1 µg/mL (≈ 0.69 µM); with A. baumannii AB5075 (AB5075, read-out: A. baumannii AB5075 MIC) it was more than 128 µg/mL.

In the case of `CO[C@H]1/C=C/O[C@@]2(C)Oc3c(C)c(O)c4c(O)c(c(/C=N/N5CCN(C)CC5)c(O)c4c3C2=O)NC(=O)/C(C)=C\C=C\[C@H](C)[C@H](O)[C@@H](C)[C@@H](O)[C@@H](C)[C@H](OC(C)=O)[C@@H]1C` [rifampicin, reference compound], the “increase in MIC against MRSA USA300” value with MRSA USA300 [2] (eighth passage) was determined as 7 fold; with MRSA USA300 [2] (setting [5]), 13 fold.

Turning to `C=CCCSc1ccc(/C(C)=N/NC(=N)N)cc1` [Example compound of formula 70], the MIC with MRSA USA300 [1] (setting [3]) and in the experiment with A. baumannii AB5075 (setting [4]) was 32 µg/mL throughout.

Consider `C/C(=N\NC(=N)N)c1ccc(SCC2CCCCC2)cc1` [Example compound of formula 82], for which, in the experiment on MRSA USA300 [1] (setting [3]), the “MRSA USA300 MIC” value is reported as “No inhibition”. Besides, the “A. baumannii AB5075 MIC” value in the experiment with A. baumannii AB5075 (setting [3]) is reported as “No inhibition”.

As to `C/C(=N\NC(=N)N)c1ccc(SCc2ccccc2)cc1` [Example compound of formula 83], the MIC in the experiment on MRSA USA300 [1] (setting [3]) turned out to be 4 µg/mL; with A. baumannii AB5075 (setting [4]), 16 µg/mL.

In the case of `CCCCSc1ccc(/C(C)=N/NC(=N)N)cc1` [Example compound of formula 69], the MIC was 8 µg/mL with MRSA USA300 [1] (setting [3]) and 16 µg/mL in the experiment with A. baumannii AB5075 (setting [4]).

For the molecule `CCCCCCCCCSc1ccc(/C(C)=N/NC(=N)N)cc1` [Example compound of formula 73], the values for the minimal inhibitory concentration (MIC) with MRSA USA300 [1] (setting [3]) and in the experiment on A. baumannii AB5075 (setting [4]) were 2 µg/mL and 16 µg/mL, respectively.

Take `C/C(=N\NC(=N)N)c1ccc(SC2CCCCC2)cc1` [Example compound of formula 80]: the figures for the MIC in the experiment with MRSA USA300 [1] (setting [3]) and in the experiment on A. baumannii AB5075 (setting [4]) were 4 µg/mL and 8 µg/mL, respectively.
